Assay results from patent US20050119263A1, “Treatment of breast cancer” (priority 2001, published 2005).

Test system: metastatic and/or recurrent breast cancer
Test: Phase III clinical trial, survival of patients treated with DPPE/doxorubicin versus doxorubicin alone
Type: in vivo, human
Procedure: In the treatment of metastatic and/or recurrent breast cancer, the diphenyl compound preferably is used in an amount of about 3 to about 10 mg/kg of patient administered intravenously over a period of about 30 to about 90 minutes prior to administration of the chemotherapeutic agent(s) and continuing for the period of administration of the chemotherapy agent(s). In the specific Phase III clinical trial described herein, there was employed 5.3 mg/kg of DPPE in the form of the base (equivalent to 6 mg/kg of DPPE in the form of its hydrochloride), administered intravenously as an aqueous solution thereof over 80 minutes, with the last twenty minutes being accompanied by infusion of the specific chemotherapeutic agent.
The anthracycline chemotherapy agent active in breast cancer which is employed herein preferably is used in a total amount of about 50 to about 75 mg/M^2 of patient consistent with the identity of the anthracycline chemotherapy agent(s). In the specific Phase III clinical trial described herein, there was employed 60 mg/M^2 of doxorubicin administered over the last 20 minutes of infusion of the DPPE solution. […]
The survival time of patients was determined in relation to ER status for patients receiving the DPPE/DOX combination and DOX alone. […]
In addition, the survival times of patients was determined in relation to disease-free intervals for patients receiving the DPPE/DOX combination and DOX alone.
The survival times of patients was determined in relation to the number of cycles of treatment for patients receiving the DPPE/DOX combination and DOX alone.
The survival time for patients also was determined for those patients with metastatic breast cancer receiving no prior chemotherapy treatment in relation to those also had received prior chemotherapy treatment and for patients that had received no previous treatment type (i.e. no prior chemotherapy, radiotherapy and/or hormone treatment). The survival times were determined for patients receiving the DPPE/DOX combination and DOX alone.

Compound	median overall survival (patients with metastatic disease who had no previous chemotherapy, DPPE 5.3 mg/kg iv over 80 min, doxorubicin 60 mg/M^2 over last 20 min)	median overall survival (patients with metastatic disease who had no previous treatment (chemotherapy, radiotherapy and/or hormone treatment))	increase in overall survival compared to the control group (patients with aggressive breast cancer, pretreatment with DPPE before doxorubicin)
COc1cccc2c1C(=O)c1c(O)c3c(c(O)c1C2=O)C[C@@](O)(C(=O)CO)C[C@@H]3O[C@H]1C[C@H](N)[C@H](O)[C@H](C)O1 [DOX, doxorubicin]	16.2 months	15 months	–
CCN(CC)CCOc1ccc(Cc2ccccc2)cc1 [DPPE, N,N-diethyl-2-[4-(phenylmethyl)-phenoxy]ethanamine]	–	–	about 50%
